Laboratory results published in patent publication US20030073133A1, “Individualization of therapy with erectile dysfunction agents” (McGill University, priority 2001, published 2003).
Read-outs that look alike come from different tables or passages of the source. Marks after values point to notes of the source that are not given here.

Columns and labels:
[1] = system: 1X-Ab; assay: Competitive antigen ELISA, cross-reactivity of 1X-Ab; format: binding, rabbit; conditions: 0 = absence of inhibition or inhibition no higher than 40% at highest concentration tested (5 × 10^−3 M)
Method: (§1) Competitive Antigen Elisa
(§2) Buffers and water without additives are filtered through millipore filters and kept for 1 week. BSA, antibodies, Tween™ 20 and horse radish peroxidase conjugates are added to these buffers and water just prior to use. Urine samples are usually collected 4 hours after drinking a cup of coffee (instant or brewed with approximately 100 mg of caffeine per cup) and stored at −80° C. The urine samples are diluted 10 times with sodium phosphate buffer (620 mosm, pH 7.50) and are subsequently diluted with water to give concentrations of AAMU and 1X no higher than 3×10^−6 M in the ELISA. All the pipettings are done with an eight-channel pipette, except those of the antibody and sample solutions. Starting with the last well, 100 μL of a carbonate buffer (100 mM, pH 9.6) containing 2.5 μg mL-1 antibodies are added to each well. After 90 min. at room temperature, the wells are washed three times with 100 mL of TPB: isotonic sodium phosphate buffer (310 mosm, pH 7.50) containing 0.05% Tween™ 20.
(§3) After the initial wash, unoccupied sites are blocked by incubation for 90 min. at room temperature with 100 μL TBP containing 3% BSA. The wells are washed four times with 100 μL TPB. The washing is followed by additions of 50 μL of 12 mg mL^−1 AAMU-HRP or 1X-HRP conjugate in 2× TPB containing 2% BSA, and 50 μL of either water, standard (13 standards; AAMU or 1X, 2×10^−4 to 2×10^−8 M) or sample in duplicate. The microplate is gently shaken with an orbital shaker at room temperature for 3-4 hours. The wells are washed three times with 100 μL TPB containing 1% BSA and three times with water containing 0.05% Tween™ 20. To the washed plate is added 150 μL of a substrate buffer composed of citric acid (25 mM) and sodium phosphate dibasic buffer (50 mM, pH 5.0) containing 0.06% hydrogen peroxide and 0.04% o-phenylenediamine hydrochloride.
as §2, with “were” for “are”, “They were” for “The urine samples are”, “mL-^1” for “mL-1”, “was pipetted.” for “are added to each well.”, “μL” for “mL”
(§4) After the initial wash, unoccupied sites were blocked by incubation for 90 min. at room temperature with 100 μL TBP containing 3% BSA. The wells were washed four times with 100 μL TPB. This was followed by additions of […] of 12 mg mL^−1 AAMU-HRP or 1X-HRP conjugate in 2× TPB containing 2% BSA, and 50 μL of either water, standard (13 standards; AAMU or 1X, 2×10^−4 to 2×10^−8 M) or sample in duplicate. The microplate was gently shaken with an orbital shaker at room temperature for 3-4 hours. The wells were washed three times with 100 μL with TPB containing 1% BSA and three times with water containing 0.05% Tween™ 20. To the washed plate was added 150 μL of a substrate buffer composed of citric acid (25 mM) and sodium phosphate dibasic buffer (50 mM, pH 5.0) containing 0.06% hydrogen peroxide and 0.04% o-phenylenediamine hydrochloride. After 20 min. at room temperature with shaking, the reaction was stopped with 50 μL of 2.5 N HCl.
(§5) The cross reactivities of AAMU-Ab and 1X-Ab were tested using a wide variety of caffeine metabolites and structural analogs (Table 2 below).

[2] = system: AAMU-Ab; assay: Competitive antigen ELISA, cross-reactivity of AAMU-Ab; format: binding, rabbit; conditions: 0 = absence of inhibition or inhibition no higher than 40% at highest concentration tested (5 × 10^−3 M)
Method: as §1, §2, §3
as §2, with “were” for “are”, “They were” for “The urine samples are”, “mL-^1” for “mL-1”, “was pipetted.” for “are added to each well.”, “μL” for “mL”
as §4, §5

[3] = system: impotent men; conditions: cited from earlier work
[4] = system: poor vs. extensive metabolizers; conditions: cited from earlier work
[5] = system: slow and fast acetylators; conditions: cited from earlier work
[6] = system: individuals prescribed sildenafil; conditions: postmarketing; cited from earlier work
[7] = intracavernosal, mixed populations

Row | Compound | % Cross-Reaction IX-Ab [1] [%] | % Cross-Reaction AAMU-Ab [2] | other results
1 | Cn1c(=O)c2c(ncn2C)n(C)c1=O [1,3,7-Trimethyl Xanthine (Caffeine), 1,3,7-Trimethyl Xanthine] | 0 | 0% | –
2 | Cn1c(=O)c2[nH]cnc2n(C)c1=O [1,3-Dimethyl Xanthine (Theophylline), 1,3-Dimethyl Xanthine] | 0.2 | 0% | –
3 | Cn1c(=O)[nH]c2ncn(C)c2c1=O [1,7-Dimethyl Xanthine (Paraxanthine), 1,7-Dimethyl Xanthine] | 0.5 | 0% | –
4 | Cn1c(=O)[nH]c2[nH]c(=O)n(C)c2c1=O [1,7-Dimethyluric acid] | 0 | 0% | –
5 | Cn1c(=O)[nH]c2nc[nH]c2c1=O [1-Methyl Xanthine (1x), 1-Methyl Xanthine] | 100 | 0% | –
6 | Cn1c(=O)[nH]c2[nH]c(=O)[nH]c2c1=O [1-Methyluric acid] | 11 | 0% | –
7 | Cn1cnc2c1c(=O)[nH]c(=O)n2C [3,7-Dimethyl Xanthine (Theobromine), 3,7-Dimethyl Xanthine] | 0 | 0% | –
8 | Cn1c(=O)[nH]c(=O)c2[nH]cnc21 [3-Methyl Xanthine] | 0 | 0% | –
9 | CC(=O)Nc1c(N)n(C)c(=O)n(C)c1=O [5-Acetamino-6-amino-1,3-dimethyluracil] | 0 | 0% | –
10 | CC(=O)Nc1c(N)n(C)c(=O)[nH]c1=O [5-Acetamino-6-amino-1-methyluracil] | 0 | 100% | –
11 | CC(=O)Nc1c(N)[nH]c(=O)[nH]c1=O [5-Acetamino-6-amino-uracil] | 0 | 0.6% | –
12 | Cn1cnc2[nH]c(=O)[nH]c(=O)c21 [7-Methyl Xanthine] | 0 | 0% | –
13 | Cc1nc2[nH]c(=O)[nH]c(=O)c2[nH]1 [8-Methyl Xanthine] | 0 | 0% | –
14 | CCCCC[C@H](O)/C=C/[C@H]1[C@H](O)CC(=O)[C@@H]1CCCCCCC(=O)O [Alprostadil, prostaglandin E1] | – | – | average duration of erection ([3]; intracavernosal): 64 min; attempts in which erections were achieved [3, 7]: 87%; men who achieved erections [3, 7]: Ninety-four
15 | COc1ccc2c(c1)[C@]13CCCC[C@@H]1[C@H](C2)N(C)CC3 [Dextromethorphan] | – | – | mean performance +/−SE ([4]; EMs (extensive metabolizers)): 95+/−0.5%; mean performance +/−SE ([4]; PMs (poor metabolizers)): 86+/−6%
16 | Nc1nc2nc[nH]c2c(=O)[nH]1 [Guanine] | 0 | 0% | –
17 | O=c1[nH]cnc2nc[nH]c12 [Hypoxanthine] | 0 | 0% | –
18 | COc1ccc(Cc2nccc3cc(OC)c(OC)cc23)cc1OC [Papaverine] | – | – | penile fibrosis ([3]; after 1 year of treatment): up to 60%; response rates ([3]; alone or with phentolamine, mixed populations of impotent men): about 50%; average duration of erection ([3]; intracavernosal): 50 min
19 | O=c1cc[nH]c(=O)[nH]1 [Uracil] | 0 | 0% | –
20 | O=c1[nH]c(=O)c2[nH]c(=O)[nH]c2[nH]1 [Uric acid] | 0 | 0% | –
21 | O=c1[nH]c(=O)c2[nH]cnc2[nH]1 [Xanthine] | 0 | 0^a % | –
22 | Nc1ccc(S(=O)(=O)c2ccc(N)cc2)cc1 [dapsone, Dapsone] | – | – | adverse reactions ([5]; fast acetylators): 17%; adverse reactions ([5]; slow acetylators): 46%
23 | CCCc1nn(C)c2c(=O)[nH]c(-c3cc(S(=O)(=O)N4CCN(C)CC4)ccc3OCC)nc12 [sildenafil, Sildenafil] | – | – | deaths identified as having cardiovascular events [6]: Forty-six; deaths with definite or suspected myocardial infarction [6]: 21; individual deaths reported after prescription [6]: 123
